We go through 1 compound from patent publication US20160058872A1, “IMIDE-BASED MODULATORS OF PROTEOLYSIS AND ASSOCIATED METHODS OF USE” (Arvinas, Inc., priority 2014, published 2016).

For the experiment, the system named is c-Myc. In words: c-Myc protein level by immunoblot in BL cell lines. The class given is cell-based. Conditions: 24 hours, washout. As for the experimental part:
Cultured cells were collected in lysis buffer containing 40 mM HEPES (pH 7.4), 140 mM NaCl, 2.5 mM EDTA, 1% NP-40, 0.1% SDS and protease inhibitor cocktail. After 10 minutes of centrifugation (14000 rpm), supernatant was collected for protein concentration determination by BCA method and subjected for immunoblotting by standard protocol. Western blot results were visualized using Bio-Rad Clarity ECL Western Blotting Substrate on Bio-Rad ChemiDoc™ MP imaging system.
A separate set of cells were treated in the same manner, except that DMSO was used in place of the inhibitor. Following treatment, cell lysates were collected and analyzed by immunoblot for c-Myc and Actin.
Cells were re-seeded and incubated without inhibitor for 0 hr, 0.5 hr, 1.0 hr, 2.0 hr, 3.0 hr, 4.0 hr, and 6.0 hr. Cell lysates were then collected at the various time points and analyzed by immunoblot for c-Myc and Actin. In a parallel control experiment, NAMALWA cells were treated in the same manner, except DMSO was used in place of JQ1.
After treatment, the cells were either lysed (to evaluate the suppression of c-Myc by the inhibitors) or washed to remove the inhibitor, re-seeded, and incubated without inhibitor for 4.0 hours (to evaluate the reversibility of c-Myc suppression). Cell lysates were collected and analyzed by immunoblot for c-Myc and Actin.
Following treatment, cell lysates were collected and analyzed by immunoblot for BRD4, c-Myc and Actin.
Cells were re-seeded in fresh medium and incubated without any compound for 0 hr, 2.0 hr, 4.0 hr, 6.0 hr, and 24.0 hr. In a parallel control experiment, cells were treated in the same manner, except DMSO was used in place of inhibitor. Lysates were collected and analyzed by immunoblot for BRD4, c-Myc, and Actin.

Take `Cc1sc2c(c1C)C(c1ccc(Cl)cc1)=N[C@@H](CC(=O)OC(C)(C)C)c1nnc(C)n1-2` [JQ1]: the “time to recovery of c-Myc to control level after removal” value (NAMALWA, 1.0 μM) is ≤ 4 h. Moreover, under “NAMALWA, after 1000 nM”, the “time to return of c-Myc to control level post removal” value is ≤ 3.0 h. The “time to significant c-Myc increase after removal” value (Ramos, after 1000 nM) is ≤ 4.0 h.
